Results from patent publication US8778954B2, “Phenylpyridine derivative and medicinal agent comprising same” (Kowa Company, Ltd., priority 2009, dated 2014).

How the values were obtained:
[1] = target: T1, angiotensin II type 1 receptor (Oryctolagus cuniculus, UniProt P34976); assay: Angiotensin II receptor antagonistic activity in isolated rabbit blood vessels (thoracic aorta ring, angiotensin II-induced contraction); type: cell-based; details: 0.1 μM test compound, angiotensin II (10 nM)-induced contraction, read-out: Angiotensin II activity inhibitiom rate (%) at 0.1 μM concentration
T1 construct: By using a specimen of isolated rabbit blood vessels; from tissue; host or cells: rabbit (New Zealand White) thoracic aorta ring
T1 sequence (P34976 1-359): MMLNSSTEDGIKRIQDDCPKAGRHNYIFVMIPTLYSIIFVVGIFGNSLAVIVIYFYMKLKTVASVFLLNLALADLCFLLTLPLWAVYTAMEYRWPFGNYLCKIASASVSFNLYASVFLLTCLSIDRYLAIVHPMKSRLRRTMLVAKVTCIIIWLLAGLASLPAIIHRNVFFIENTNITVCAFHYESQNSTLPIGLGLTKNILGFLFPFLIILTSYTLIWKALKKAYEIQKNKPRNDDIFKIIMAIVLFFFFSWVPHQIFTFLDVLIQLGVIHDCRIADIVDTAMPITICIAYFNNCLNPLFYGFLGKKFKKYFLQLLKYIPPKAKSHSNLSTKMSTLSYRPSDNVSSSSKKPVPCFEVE
Description: By using a specimen of isolated rabbit blood vessels, antagonistic activity of the compounds of the invention against angiotensin II type 1 receptor was estimated from a dose-response curve of angiotensin II-induced blood vessel contraction. Specifically, the specimen of thoracic aorta ring of a rabbit (New Zealand White: male, 2.4 to 3.0 kg) was suspended in a magnus bath filled with Krebs-Henseleite buffer (composition: 118 mM NaCl, 4.7 mM KCl, 2.55 mM CaCl2, 1.18 mM MgSO4, 1.18 mM KH2PO4, 24.88 mM NaHCO3, and 11.1 mM D-glucose), and angiotensin II (10 nM)-induced contraction was obtained in the presence of the compounds of each test (1 nmol/L to 10 μmol/L). During the measurement, the inside temperature of the magnus bath was maintained at 37° C. and the bath was continuously ventilated with a sufficient amount of mixed gas (95% O2 and 5% CO2). The angiotensin II-induced contraction was converted into a relative value (%) that is based on the angiotensin II (0.1 μM)-induced contraction in the absence of the compounds of each example.

db/db mice = assay: Impaired glucose tolerance improving activity in type 2 diabetes model mouse; type: in vivo; details: oral once a day, Example 23 10 mg/kg, Example 21 30 mg/kg, telmisartan 30 mg/kg; for plasma glucose concentration: 2 weeks after initiation, FIG. 2; for AUC of plasma glucose in the glucose tolerance test (120 minutes after glucose solution): 4 weeks, glucose 2 g/kg, FIG. 3
Description: By using 7-week old db/db mice, the body weight and the plasma glucose concentration of each mouse were measured before administration of the medicine, and group separation was performed by blocking assignment so that there was no variation of these values between respective groups. Solvent control (0.5% MC), 5 mg/kg rosiglitazone, 30 mg/kg telmisartan, 10 mg/kg of the compound of Example 23, and 30 mg/kg of the compound of Example 21 were orally administered iteratively for 4 weeks, once a day. Blood collecting was performed from the orbital vein plexus, and the plasma glucose concentration was measured at 2 weeks after the initiation of the administration. Furthermore, oral glucose tolerance test was performed at 4 weeks after the initiation of the administration. Specifically, the mouse was fasted for 24 hours from the night before the glucose tolerance test, and then a glucose solution was orally administered at a dose of 2 g/kg. The blood was collected from the tail vein of the mouse at 15, 30, 60, and 120 minutes after the administration of the glucose solution, and the concentration of the plasma glucose was measured. The area surrounded with the measured plasma glucose concentration and the time was taken as the area under the curve (AUC), and AUC for 120 minutes after administration of the glucose solution was estimated from the trapezoidal method.
Vehicle, Rosiglitazone, Telmisartan, Compound 23, and Compound 21 in FIGS. 2 and 3 represent solvent control, rosiglitazone, telmisartan, the compound of Example 23, and the compound of Example 21, respectively. The vertical axis of FIG. 2 represents the plasma glucose concentration. The data in FIG. 2 represents individual values and average values of each individual. The vertical axis of FIG. 3 represents the area under the curve surrounded with the plasma glucose concentration and the time (for 120 minutes after administration of the glucose solution). The data in FIG. 3 represents individual values and average values of each individual. […] Such activities were not confirmed for the telmisartan administration group.

Compound	inhibition at 0.1 µM [1] [%]	plasma glucose concentration (db/db mice)	AUC of plasma glucose in the glucose tolerance test (120 minutes after glucose solution) (db/db mice)
CCCCc1nc(C(C)C)n(-c2ncc(OCC)cn2)c(=O)c1Cc1ccc(-c2ccccc2-c2noc(=O)[nH]2)nc1 [Example 21, 3-{2-{5-{[4-butyl-1-(5-ethoxypyrimidin-2-yl)-2-isopropyl-6-oxo-1,6-dihydropyrimidin-5-yl]methyl}pyridin-2-yl}phenyl}-1,2,4-oxadiazol-5(4H)-one]	70.3	remarkable lowering activity of the plasma glucose concentration	remarkably lowering AUC
CCCCc1nc(C2CC2)n(-c2ncc(OCC)cn2)c(=O)c1Cc1ccc(-c2ccccc2-c2noc(=O)[nH]2)nc1 [Example 23, 3-{2-{5-{[4-butyl-2-cyclopropyl-1-(5-ethoxypyrimidin-2-yl)-6-oxo-1,6-dihydropyrimidin-5-yl]methyl}pyridin-2-yl}phenyl}-1,2,4-oxadiazol-5(4H)-one]	75.2	remarkable lowering activity of the plasma glucose concentration	remarkably lowering AUC
